Source: patent publication US10167295B2 (priority 2013, dated 2019)
Entries after “also recorded” stand apart in the source; their conditions may differ. Structures can show the parent of a compound that is named as a salt. Where two headings read alike, the source gives them in different places.

Columns and labels:
DOR [1] = biological target: T1, DOR (Homo sapiens, UniProt P41143); test: biochemical; format: binding
MOR [2] = biological target: T2, MOR (Homo sapiens, UniProt P35372); test: biochemical; format: binding
DOR [3] = biological target: T1, DOR; test: biochemical; format: binding; remark: listed apart in the source
MOR [4] = biological target: T2, MOR; test: biochemical; format: binding; remark: listed apart in the source
NOP [5] = biological target: T3, NOP (Homo sapiens, UniProt P41146); format: cell-based
KOR = KOR (Homo sapiens, UniProt P41145); test: biochemical; format: binding
σ2 receptor = biological target: T4, σ2 receptor (Homo sapiens, UniProt Q5BJF2); format: binding; conditions: for inhibition at 10 µM: read-out: Inhibition (%) Sigma2 (σ2)
T4 construct: MDS Pharma Services (contract laboratory that ran the assay)

[6] = test system: patients with post-operative pain; test: Clinical studies of analgesia in patients with post-operative pain; format: in vivo, human; conditions: for sex difference in analgesia: women vs men, post-operative pain (FIG. 8, 9)
[7] = test system: patients with post-operative pain; conditions: cited from earlier work; for analgesia in earlier clinical studies (in words): patients with post-operative pain, literature of the applicants
NOP [8] = biological target: T3, NOP; format: binding; set-up: MDS Pharma Services (contract laboratory that ran the assay); conditions: for binding to the NOP receptor (in words): 10 μM; for inhibition at 10 µM: read-out: Inhibition (%) Nociceptin/orphanin F/Q (NOP)

T4 sequence (Q5BJF2 whole entry, species assumed): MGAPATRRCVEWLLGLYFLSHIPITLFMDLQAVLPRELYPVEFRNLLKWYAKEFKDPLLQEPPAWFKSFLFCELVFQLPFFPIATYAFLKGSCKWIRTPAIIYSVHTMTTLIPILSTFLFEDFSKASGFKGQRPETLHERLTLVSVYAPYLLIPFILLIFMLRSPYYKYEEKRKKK
T1 sequence (P41143 whole entry): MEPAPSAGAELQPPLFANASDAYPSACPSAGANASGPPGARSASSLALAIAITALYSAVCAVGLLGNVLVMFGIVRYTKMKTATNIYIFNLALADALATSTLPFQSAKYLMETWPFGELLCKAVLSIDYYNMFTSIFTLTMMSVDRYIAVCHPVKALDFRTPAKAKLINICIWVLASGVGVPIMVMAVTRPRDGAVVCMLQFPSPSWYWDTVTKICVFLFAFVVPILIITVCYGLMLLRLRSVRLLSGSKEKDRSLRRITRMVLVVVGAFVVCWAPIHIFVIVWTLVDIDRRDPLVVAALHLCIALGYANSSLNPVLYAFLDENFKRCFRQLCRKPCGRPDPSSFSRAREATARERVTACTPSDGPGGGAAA
T2 sequence (P35372 whole entry): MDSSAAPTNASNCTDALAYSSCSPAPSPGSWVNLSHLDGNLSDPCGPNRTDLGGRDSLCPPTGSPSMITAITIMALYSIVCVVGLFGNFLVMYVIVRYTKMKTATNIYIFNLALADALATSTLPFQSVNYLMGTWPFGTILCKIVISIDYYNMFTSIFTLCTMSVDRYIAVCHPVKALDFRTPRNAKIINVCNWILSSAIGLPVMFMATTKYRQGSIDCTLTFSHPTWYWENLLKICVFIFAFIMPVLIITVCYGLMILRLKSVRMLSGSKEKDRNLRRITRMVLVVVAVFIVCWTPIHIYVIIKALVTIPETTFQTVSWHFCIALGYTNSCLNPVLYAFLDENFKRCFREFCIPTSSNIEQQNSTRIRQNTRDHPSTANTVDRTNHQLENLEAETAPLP
T3 sequence (P41146 whole entry): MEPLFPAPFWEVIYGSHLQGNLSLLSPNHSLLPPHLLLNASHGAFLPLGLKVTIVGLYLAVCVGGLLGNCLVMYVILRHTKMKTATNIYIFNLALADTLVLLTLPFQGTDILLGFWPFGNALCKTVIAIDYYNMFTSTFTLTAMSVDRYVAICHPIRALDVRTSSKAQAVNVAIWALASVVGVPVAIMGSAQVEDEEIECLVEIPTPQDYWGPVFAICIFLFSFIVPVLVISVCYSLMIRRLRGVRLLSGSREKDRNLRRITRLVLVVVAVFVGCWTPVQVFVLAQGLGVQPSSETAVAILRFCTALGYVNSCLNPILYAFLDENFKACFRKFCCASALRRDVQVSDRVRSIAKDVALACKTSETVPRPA
Sequence of KOR (P41145 whole entry): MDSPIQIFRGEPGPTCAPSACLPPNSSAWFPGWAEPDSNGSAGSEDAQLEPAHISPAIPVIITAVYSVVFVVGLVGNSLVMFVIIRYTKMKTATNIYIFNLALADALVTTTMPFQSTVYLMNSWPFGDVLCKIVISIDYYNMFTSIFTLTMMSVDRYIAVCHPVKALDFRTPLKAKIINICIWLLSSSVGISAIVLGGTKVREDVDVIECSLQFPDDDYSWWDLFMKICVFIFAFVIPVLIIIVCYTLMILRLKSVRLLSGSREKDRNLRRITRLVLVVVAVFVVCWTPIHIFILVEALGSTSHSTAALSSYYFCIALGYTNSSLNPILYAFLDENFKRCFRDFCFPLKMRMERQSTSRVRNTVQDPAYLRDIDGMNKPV

CN(C(=O)/C=C/c1ccoc1)[C@@H]1CCC2(O)C3Cc4ccc(O)c5c4[C@@]2(CCN3CC2CC2)[C@H]1O5 (some centres unmarked) [compound 27035, TRK-820 HCl]
DOR (DOR [1]): 95
inhibition at 10 µM (DOR [1]; read-out: DOR mean % inhibition): 95.3%
Ki (MOR [2]): 1.1 nM
Ki (DOR [3]): 42 nM
MOR (MOR [4]): 94
inhibition at 10 µM (MOR [4]; read-out: MOR mean % inhibition): 93.8%
NOP Tango Agonist (NOP [5]): 3.5
KOR (KOR): 91
inhibition at 10 µM (KOR; read-out: KOR mean % inhibition): 90.5%

C=CCN1CC[C@]23c4c5ccc(O)c4O[C@H]2C(=O)CC[C@@]3(O)[C@H]1C5 [Naloxone, naloxone hydrochloride]
binding to the σ2 receptor (in words) (σ2 receptor; 10 μM): does not bind to the σ2 receptor
inhibition at 10 µM (σ2 receptor): -2%
effect on nalbuphine anti-analgesia in males ([6]; naloxone 0.4 mg in combination with nalbuphine, men (FIG. 10 left)): abolished the anti-analgesic effect of nalbuphine in males resulting in significant analgesia
effect on nalbuphine analgesia in females ([6]; naloxone 0.4 mg in combination with nalbuphine, women (FIG. 10 right)): enhanced nalbuphine analgesia in females
analgesia in earlier clinical studies (in words) [7]: blocks anti-analgesia and produces enhanced and prolonged analgesia

Oc1ccc2c(c1)[C@@]13CCCC[C@@]1(O)[C@@H](C2)N(CC1CCC1)CC3 [Butorphanol]
sex difference in analgesia [6]: significantly great analgesia in women than in men; also recorded: significantly greater analgesia in females than in males

CN(C)CCCN1c2ccccc2Sc2ccc(Cl)cc21 [chlorpromazine]
analgesia in earlier clinical studies (in words) [7]: enhanced the analgesic effect of nalbuphine

Oc1ccc2c3c1O[C@H]1[C@@H](O)CC[C@@]4(O)[C@@H](C2)N(CC2CCC2)CC[C@]314 [Nalbuphine, Nalbuphine hydrochloride]
inhibition at 10 µM (σ2 receptor): 15%
sex difference in analgesia ([6]; hydrochloride): significantly greater analgesia in females than in males
sex difference in analgesia ([6]; listed as nalbuphine, hydrochloride): significantly great analgesia in women than in men
time by which men reported increasing pain (anti-analgesia) ([7]; men, placebo controlled study (Gear 1999)): ~90 min
analgesia in earlier clinical studies (in words) [7]: worse pain than those receiving placebo
binding to the NOP receptor (in words) (NOP [8]; hydrochloride): binds to NOP receptors
inhibition at 10 µM (NOP [8]): 12%

CC(C)=CCN1CCC2(C)c3cc(O)ccc3CC1C2C.CC(O)C(=O)O (centres unmarked) [Pentazocine, Pentazocine lactate]
inhibition at 10 µM (σ2 receptor): 81%
sex difference in analgesia [6]: significantly great analgesia in women than in men; also recorded: significant difference in analgesia experience by females and males
binding to the NOP receptor (in words) (NOP [8]): binds to NOP receptors
inhibition at 10 µM (NOP [8]): 24%

O=C(CCCN1CCC(O)(c2ccc(Cl)cc2)CC1)c1ccc(F)cc1 [haloperidol]
analgesia in earlier clinical studies (in words) [7]: enhanced the analgesic effect of nalbuphine

NCC(CC(=O)O)c1ccc(Cl)cc1 (centres unmarked) [baclofen]
effect on the analgesic effect of pentazocine ([7]; oral, from three days prior to surgery, pentazocine 30 mg i.v. (Gordon 1995)): not significantly different from that of placebo
